Results from patent US20160039904A1, “STABILIZED SINGLE HUMAN CD4 DOMAINS AND FUSION PROTEINS” (priority 2013, published 2016).
Values joined by “and” are separate entries in the source; they are usually repeats but may differ in a detail not shown here. Identical values can stand only once. Like-named read-outs stand apart in the source and are kept apart here.

Columns and labels:
Format in all cases: cell-based
[1] = system: HIV-1 CH64; conditions: Table 7; CH64, clade BC, R5
[2] = system: HIV-1 CH70; conditions: Table 7; CH70, clade BC, R5
[3] = system: HIV-1 CH91; conditions: Table 7; CH91, clade BC, R5
[4] = system: HIV-1 CH110; conditions: Table 7; CH110, clade BC, R5
[5] = system: HIV-1 CH117; conditions: Table 7; CH117, clade BC, R5
[6] = system: HIV-1 CH119; conditions: Table 7; CH119, clade BC, R5
[7] = system: HIV-1 CH120; conditions: Table 7; CH120, clade BC, R5
[8] = system: HIV-1 CNE7; conditions: Table 7; CNE7, clade BC, R5
[9] = system: HIV-1 CNE15; conditions: Table 7; CNE15, clade BC, R5
[10] = system: HIV-1 CNE16; conditions: Table 7; CNE16, clade BC, R5
[11] = system: HIV-1 CNE30; conditions: Table 7; CNE30, clade BC, R5
[12] = system: HIV-1 CNE40; conditions: Table 7; CNE40, clade BC, R5
[13] = system: HIV-1 CNE46; conditions: Table 7; CNE46, clade BC, R5
[14] = system: HIV-1 CNE53; conditions: Table 7; CNE53, clade BC, R5
[15] = system: HIV-1 CNE4; conditions: Table 7; CNE4, clade B′, R5
[16] = system: HIV-1 CNE6; conditions: Table 7; CNE6, clade B′, R5
[17] = system: HIV-1 CNE9; conditions: Table 7; CNE9, clade B′, R5
[18] = system: HIV-1 CNE11; conditions: Table 7; CNE11, clade B′, R5
[19] = system: HIV-1 CNE14; conditions: Table 7; CNE14, clade B′, R5
[20] = system: HIV-1 CNE57; conditions: Table 7; CNE57, clade B′, X4
[21] = system: HIV-1 CNE64; conditions: Table 7; CNE64, clade B′, R5
[22] = system: HIV-1 CNE17; conditions: Table 7; CNE17, clade C, R5
[23] = system: HIV-1 CNE58; conditions: Table 7; CNE58, clade C, R5
[24] = system: HIV-1 CNE65; conditions: Table 7; CNE65, clade C, R5
[25] = system: HIV-1 CNE66; conditions: Table 7; CNE66, clade C, R5
[26] = system: HIV-1 CNE3; conditions: Table 7; CNE3, clade AE, R5
[27] = system: HIV-1 CNE5; conditions: Table 7; CNE5, clade AE, R5
[28] = system: HIV-1 CNE55; conditions: Table 7; CNE55, clade AE, R5
[29] = system: HIV-1 CNE59; conditions: Table 7; CNE59, clade AE, R5
[30] = system: HIV-1 CNE107; conditions: Table 7; CNE107, clade AE, X4
[31] = system: HIV-1 AE20; conditions: Table 7; AE20, clade AE, R5
[32] = system: HIV-1 AE03; conditions: Table 7; AE03, clade AE, R5
[33] = system: 41 HIV-1 isolates predominantly circulating in China; conditions: for IC50 / IC90: Table 7, all viruses, >750 assigned 800, >250 assigned 300, >100 assigned 150, >28 assigned 30
[34] = read-out: IC50, arithmetic mean
[35] = read-out: IC90, arithmetic mean

Work on “4Dm2m: bispecific multivalent fusion protein of mD1.22 and m36.4; two SEQ ID NO: 20 and two SEQ ID NO: 21 chains” yielded an IC90 [1] of 1.6 nM, an IC50 [2] of 0.11 nM and an IC90 [2] of 1.2 nM. It also gave an IC50 [3] of 0.39 nM, an IC90 [3] of 10 nM and an IC50 [4] of 0.11 nM. For the same substance, the IC90 [4] was 0.83 nM, the IC50 [5] was 0.33 nM and the IC90 [6] was 3.4 nM. The IC50 [7] was 0.33 nM, the IC90 [7] was 6.6 nM and the IC50 [8] was 0.18 nM. It also gave an IC90 [8] of 1.8 nM, an IC50 [9] of 0.29 nM and an IC90 [9] of 2.6 nM. The IC50 [10] was 0.08 nM, the IC90 [10] was 1.2 nM and the IC50 [11] was 0.07 nM. It also gave an IC90 [11] of 0.44 nM, an IC50 [12] of 0.01 nM and an IC90 [12] of 0.11 nM. The IC50 [13] was 0.27 nM, the IC90 [13] was 9.4 nM and the IC50 [14] was 0.24 nM. For the same substance, the IC90 [14] was 5.5 nM, the IC50 [15] was 0.11 nM and the IC90 [15] was 2.4 nM. For the same substance, the IC50 [16] was 0.33 nM, the IC90 [16] was 2.3 nM and the IC50 [17] was 0.22 nM. For the same substance, the IC50 [18] was 0.33 nM, the IC90 [18] was 2.6 nM and the IC90 [19] was 2.4 nM. It also gave an IC90 [20] of 19 nM, an IC50 [21] of 0.56 nM and an IC50 [22] of 0.11 nM. For the same substance, the IC90 [22] was 2.4 nM, the IC90 [23] was > 28 nM and the IC50 [24] was 0.28 nM. For the same substance, the IC90 [24] was 3.3 nM, the IC90 [25] was 7.7 nM and the IC50 [26] was 0.39 nM. For the same substance, the IC90 [26] was 2.8 nM, the IC50 [27] was 0.67 nM and the IC90 [27] was 8.7 nM. It also gave an IC50 [28] of 0.45 nM, an IC90 [28] of 10 nM and an IC90 [29] of 2.7 nM. It also gave an IC50 [30] of 0.52 nM, an IC50 [31] of 0.72 nM and an IC50 [32] of 0.67 nM. The “IC50 geometric mean lower than that of C34” value ([33]; 41 isolates, P<0.001) was ~16 fold, the “IC50 geometric mean lower than that of CD4-Ig” value ([33]; 41 isolates, P<0.001) was ~200 fold and the “IC50 geometric mean lower than that of T20” value ([33]; 41 isolates, P=0.002) was “about 50 fold”. For the same substance, the IC50 [33, 34] was 0.34 nM, the IC50 ([33]; read-out: IC50, geometric mean) was ~0.2 nM and 0.22 nM and the IC90 [33, 35] was 6.2 nM. For the same substance, the IC90 ([33]; read-out: IC90, geometric mean) was 3.5 nM.
For enfuvirtide, the IC50 [1] was 3.1 nM, the IC90 [1] was 25 nM and the IC50 [2] was 65 nM. For the same substance, the IC90 [2] was > 750 nM, the IC50 [3] was 8.6 nM and the IC90 [3] was 310 nM. It also gave an IC50 [4] of 4.3 nM, an IC90 [4] of 262 nM and an IC50 [5] of 2.3 nM. For the same substance, the IC90 [5] was 34 nM, the IC50 [6] was 2 nM and the IC90 [6] was 25 nM. The IC50 [7] was 11 nM, the IC90 [7] was 443 nM and the IC50 [8] was 4.3 nM. The IC90 [8] was 58 nM, the IC50 [9] was 14 nM and the IC90 [9] was 157 nM. The IC50 [10] was 14 nM, the IC90 [10] was 169 nM and the IC50 [11] was 26 nM. For the same substance, the IC90 [11] was 285 nM, the IC50 [12] was 4.9 nM and the IC90 [12] was 108 nM. For the same substance, the IC50 [13] was 26 nM, the IC90 [13] was 743 nM and the IC50 [14] was 51 nM. The IC90 [14] was 721 nM, the IC50 [15] was 1.7 nM and the IC90 [15] was 14 nM. It also gave an IC50 [16] of 1.4 nM, an IC90 [16] of 15 nM and an IC50 [17] of 1.7 nM. It also gave an IC90 [17] of 14 nM, an IC50 [18] of 3.5 nM and an IC90 [18] of 36 nM. The IC50 [19] was 9.7 nM, the IC90 [19] was 305 nM and the IC50 [20] was 2.5 nM. It also gave an IC90 [20] of 24 nM, an IC50 [21] of 1.9 nM and an IC90 [21] of 16 nM. The IC50 [22] was 42 nM, the IC90 [22] was 676 nM and the IC50 [23] was 54 nM. For the same substance, the IC90 [23] was 745 nM, the IC50 [24] was 5.9 nM and the IC90 [24] was 78 nM. For the same substance, the IC50 [25] was 129 nM, the IC90 [25] was 729 nM and the IC50 [26] was 5.6 nM. For the same substance, the IC90 [26] was 38 nM, the IC50 [27] was 2.1 nM and the IC90 [27] was 19 nM. It also gave an IC50 [28] of 26 nM, an IC90 [28] of 549 nM and an IC50 [29] of 1.4 nM. It also gave an IC90 [29] of 17 nM, an IC50 [30] of 3.8 nM and an IC90 [30] of 45 nM. It also gave an IC50 [31] of 212 nM, an IC90 [31] of 572 nM and an IC50 [32] of 304 nM. It also gave an IC90 [32] of 510 nM, an IC50 [33, 34] of 37 nM and an IC50 ([33]; read-out: IC50, geometric mean) of 11 nM. It also gave an IC90 [33, 35] of 277 nM and an IC90 ([33]; read-out: IC90, geometric mean) of 123 nM.
